Experimental findings from patent US20240239806A1, “COMPOUNDS, COMPOSITIONS AND METHODS OF TREATING DISORDERS” (Chengdu Anticancer Bioscience, Ltd., priority 2021, published 2024) are described below.

Holding throughout (format): cell-based
For assay [1], the system named is NCI-H23. In words: MTT assay of cellular proliferation. Conditions: Homo sapiens, 50% inhibition of cellular proliferation. Here is the method: (§1) Six lung cancer cell lines (NCI-H23, NCI-H460, NCI-H596, NCI-H2170, Calu-6 and A549), two colon cancer cell lines (HCT116 and SW460), one breast cancer cell line MDA-MB-231, one gastric cancer cell line NCI-N87, one prostate cancer cell line DU145, one cervical cancer cell line Hela, and one glioblastoma cell line T98G were obtained from ATCC. The T2 HCC cell line was derived from a mouse liver cancer model initiated by a transgene of MYC. All cell lines were cultured in DMEM (Gibco, Cleveland, TN, USA) supplemented with 5% fetal bovine serum (Gibco), penicillin (100 U/mL)—streptomycin (100 μg/mL) (Gibco, Cat. No. 15140-122), 2 mM L-glutamine (Gibco, 200 mM solution, Cat. No. 25030081), and 1 mM sodium pyruvate (Gibco, 100 mM solution, Cat. No. 11360070) at 37° C. in a humidified incubator that was maintained at 5% CO2.
(§2) The MTT assay measures cellular metabolic activity as a proxy for cell viability and involves the conversion of the water-soluble yellow dye MTT [3-(4,5-dimethylthiazol-2-yl)-2,5-diphenyltetrazolium bromide] into an insoluble purple formazan by the action of mitochondrial reductase. Formazan is then solubilized and its concentration is determined by measuring the optical density (OD) value at a wavelength of 570 nm. The value is in proportional to the number of live cells with excellent linearity up to ˜10^6 cells per well. The MTT assay was used to determine the EC50 value, the concentration of a compound that leads to 50% inhibition of cellular proliferation. Briefly, cells were split when growing to the mid-Log phase. Cells in 100 μL of culture medium were seeded into each well of 96-well microplates and cultivated for 15-24 hours to reach a confluence of 20-30% and were then exposed to drugs at concentrations ranging from 1 nM to 30 μM. At the endpoint, 20 μL of a MTT stock solution in DMSO (5 mg/mL) was added to each well that contains 100 μL of DMEM. The microplates were left in the cell culture incubator for 3-4 h before subjected to solubilization and determination of formazan at A570 in a microplate reader (BioTek ELX808iu). […] Therefore, these compounds might hold a broad utility in the treatment of a large variety of human malignancies.
(Formazan colour is commonly taken as a measure of viable cells.)

In assay [2] the test system is MDA-MB-231. In words: MTT assay of cellular proliferation. Conditions: Homo sapiens; MDA-MB-231, MTT, 50% inhibition of cellular proliferation. Here is the method:
as §1, §2

The test system of assay [3] is T2 HCC. In words: MTT assay of cellular proliferation. The conditions noted are these: Mus musculus, 50% inhibition of cellular proliferation. Here is the method: as §1, §2
Assay [4] deals with Hela. In words: MTT assay of cellular proliferation. The conditions noted are these: Homo sapiens, 50% inhibition of cellular proliferation. Here is the method:
as §1, §2

For assay [5], the system named is SW480. In words: MTT assay of cellular proliferation. Conditions: Homo sapiens, 50% inhibition of cellular proliferation. Here is the method:
as §1, §2

For assay [6], the system named is NCI-N87. In words: MTT assay of cellular proliferation. Conditions: Homo sapiens, 50% inhibition of cellular proliferation. Here is the method:
as §1, §2

Assay [7] has as its system HCT116. In words: MTT assay of cellular proliferation. The conditions noted are these: Homo sapiens, HCT-116, 50% inhibition of cellular proliferation. Here is the method:
as §1, §2

In assay [8] the test system is A549. In words: MTT assay of cellular proliferation. The conditions noted are these: Homo sapiens, 50% inhibition of cellular proliferation. Here is the method:
as §1, §2

Assay [9] deals with MDA-MB-231. In words: MECP in cancer cell line. Conditions: Homo sapiens. Here is the method: as §1
(§3) We have previously developed a mechanism-informed phenotypic screening assay to identify novel antimitotic agents. Equipped with a prior understanding of the versatile functions of the chromosomal passenger protein (CPP) complex in orchestrating karyokinesis and cytokinesis, the screening assay is to score for phenotypes typically seen when the CPP complex is disabled. Specifically, the parameters for a positive hit are a temporary elevation of mitotic index (MI) at 24 hours of drug treatment and an accumulation of polyploid cells at 48 hours of drug treatment, indicative of mitotic arrest and cytokinetic failure respectively. These parameters exclude compounds that elicit only a prolonged arrest of cells in mitosis, a phenotype typically provoked by spindle toxins. The screening procedure is briefly summarized here. RPEMYC^H2B-GFP cells engineered to express a Histone 2B-EGFP fusion protein were passaged as batches of 96-well plates, 18-24 hours before exposure to the chemical compounds of the present disclosure at concentrations from 1 nM to 30 μM. At 24, 48 or 72 hours after initiation of treatment, cells were analyzed for either an arrest in mitosis or a change in DNA content by GE IN-Cell Analyzer 2000. As set forth in Table 2 below, a value of greater than or equal to 1 nM and less than or equal to 1.0 μM is marked “A”; a value greater than 1.00 μM and less than or equal to 10.0 μM is marked “B”; a value greater than 10.0 μM and less than or equal to 30.0 μM is marked “C”; and a value greater than 30.0 μM is marked “D.”

Assay [10] relates to T2 HCC. In words: MECP in cancer cell line. Conditions: Mus musculus. Here is the method:
as §1, §3

For assay [11], the system named is Hela. In words: MECP in cancer cell line. The conditions noted are these: Homo sapiens. Here is the method:
as §1, §3

The subject of assay [12] is SW480. In words: MECP in cancer cell line. The conditions noted are these: Homo sapiens. Here is the method: as §1, §3
Assay [13] deals with HCT116. In words: MECP in cancer cell line. The conditions noted are these: Homo sapiens, HCT-116. Here is the method:
as §1, §3

Assay [14] has as its system A549. In words: MECP in cancer cell line. Conditions: Homo sapiens. Here is the method:
as §1, §3

In assay [15] the test system is NCI-H23. In words: MECP in cancer cell line. The conditions noted are these: Homo sapiens. Here is the method:
as §1, with “CO2. […]” for “CO2.”

Assay [16] deals with NCI-N87. In words: MECP in cancer cell line. Conditions: Homo sapiens. Here is the method: as §1, with “CO2. […]” for “CO2.”
In assay [17] the test system is RPEMYC^H2B-GFP cells. In words: Phenotypic screening assay (mitotic arrest, polyploidy). Conditions: 1 nM to 30 μM; for IC50: read-out: Proliferative arrest (>50%). The method in brief: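 RPE cells expressing MYC and H2B-EGFP treated with compound at 1 nM–30 μM; mitotic index scored at 24 h and polyploidy (DNA content) at 48 h by automated imaging, with reads at 24, 48 or 72 h. Hits show transient mitotic arrest followed by polyploid accumulation.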

Setting [18] is: read-out: Min. Effective conc. for Polyploidy (≥5%).

By EC50 is commonly meant the concentration that produces a half-maximal response. Low readings indicate an effect from little substance, high ones a need for much substance.

Where two headings read alike, the source gives them in different places.

As for `COc1cc(Oc2ccnc3ccccc23)cc(-n2cccn2)c1` [Compound 12, 4-(3-methoxy-5-(1H-pyrazol-1-yl)phenoxy)quinoline], the EC50 in [1], in [2], in assay [3], in assay [4], in assay [5] and in assay [6] was 1 to 1000 nM in each case. Besides, the EC50 in [7] and in assay [8] was 1 to 1000 nM throughout. Moreover, the minimal effective concentration in assay [9], in assay [10], in assay [11], in assay [12], in assay [13] and in [14] was 0.001 to 1 µM in each case. The minimal effective concentration in assay [15], in assay [16], in [17] (setting [18]) and in assay [17] (read-out: Mitotic Arrest (≥5%)) was 0.001 to 1 µM each time. In addition, the IC50 in assay [17] is 1 to 1000 nM.
Take `COc1cc(NC(C)=O)cc(Oc2ccnc3ccccc23)c1` [Compound 14, N-(3-methoxy-5-(quinolin-4-yloxy)phenyl)acetamide]: the concentration giving a half-maximal response (EC50) in assay [1], in assay [2], in assay [3], in assay [4], in assay [5] and in assay [6] was 1 to 1000 nM throughout. The EC50 in assay [7] and in assay [8] was 1 to 1000 nM each time. Also, the minimal effective concentration in assay [9], in [10], in assay [11], in assay [12], in assay [13] and in [14] was 0.001 to 1 µM throughout. The minimal effective concentration in assay [15], in assay [16], in assay [17] (setting [18]) and in [17] (read-out: Mitotic Arrest (≥5%)) was 0.001 to 1 µM throughout. For the same molecule, in [17], the IC50 was 1 to 1000 nM.
As to `COc1cc(Oc2ccnc3ccc(OC)cc23)cc(-n2cccn2)c1` [Compound 17, 6-methoxy-4(3-methoxy-5-(1H-pyrazol-1-yl)phenoxy)quinoline], the half-maximal effective concentration (EC50) in [1], in assay [2], in [3], in assay [4], in [5] and in assay [6] was 1 to 1000 nM throughout. Also, the EC50 in assay [7] and in [8] was 1 to 1000 nM in each case. The minimal effective concentration in assay [9], in assay [10], in assay [11], in assay [12], in assay [13] and in assay [14] was 0.001 to 1 µM in each case. Also, the minimal effective concentration in [15], in assay [16], in assay [17] (setting [18]) and in assay [17] (read-out: Mitotic Arrest (≥5%)) was 0.001 to 1 µM in each case. Also, in assay [17], the “Min. Effective conc. for Polyploidy (≥5%)” value is “B (a value greater than 1.00 μM and less than or equal to 10.0 μM)”. For the same molecule, the “Mitotic Arrest (≥5%)” value in assay [17] is “B (a value greater than 1.00 μM and less than or equal to 10.0 μM)”. The “Proliferative arrest (>50%)” value in assay [17] was “B (a value greater than 1.00 μM and less than or equal to 10.0 μM)”. Moreover, the “Along with Cell Death” value in assay [17] (listed as 16) was “B (a value greater than 1.00 μM and less than or equal to 10.0 μM)”. For the same molecule, the IC50 in assay [17] lay within 1 to 1000 nM.
In the case of `COc1cc(NC(C)=O)cc(Oc2ccnc3ccc(OC)cc23)c1` [Compound 18, N-(3-methoxy-5-((6-methoxyquinolin-4-yl)oxy)phenyl)acetamide], the EC50 in [1], in assay [2], in assay [3], in assay [4], in assay [5] and in assay [6] was 1 to 1000 nM throughout. In addition, the EC50 in [7] and in assay [8] was 1 to 1000 nM throughout. Besides, the minimal effective concentration in assay [9], in assay [10], in assay [11], in [12], in [13] and in [14] was 0.001 to 1 µM each time. Besides, the minimal effective concentration in assay [15], in assay [16], in assay [17] (setting [18]) and in assay [17] (read-out: Mitotic Arrest (≥5%)) was 0.001 to 1 µM each time. In addition, the IC50 in assay [17] lay in the range of 1 to 1000 nM.
With `COc1cc(Oc2ccnc3ccc(F)cc23)cc(-n2cccn2)c1` [Compound 19, 6-fluoro-4-(3-methoxy-5-(1H-pyrazol-1-yl)phenoxy)quinoline], the EC50 in assay [1] was in the range of 1 to 1000 nM; in assay [2], 1 to 1000 nM; in assay [3] it was 1 to 1000 nM; in assay [4], 1 to 1000 nM; in assay [5], 1000 to 10000 nM; in assay [6], 1 to 1000 nM. The EC50 in assay [7] and in assay [8] was 1 to 1000 nM throughout. Also, the minimal effective concentration in assay [9], in [10], in assay [11], in [12], in assay [13] and in [14] was 0.001 to 1 µM throughout. Besides, the minimal effective concentration in assay [15], in assay [16], in [17] (setting [18]) and in assay [17] (read-out: Mitotic Arrest (≥5%)) was 0.001 to 1 µM throughout. Further, the IC50 in [17] was in the range of 1 to 1000 nM.
